Data as given in patent US6420371B1, “Quinazolinone-containing pharmaceutical compositions for prevention of neovascularization and for treating malignancies” (Madasit Medical Research Services & Development Co., Ltd., priority 1997, dated 2002).
Converted amounts (≈) assume the structure as drawn.

Legend:
tumor cells = assay: Tunnel staining of histological tumor sections (necrosis and apoptosis); format: in vivo; conditions: tumors from halofuginone treated mice, FIG. 1F panel B
Text: Histological sections of the tumors were subjected to tunnel staining [Gavrieli, Y. et al., J. Cell Biol., Vol. 119, pp. 493-501, 1992], in order to evaluate the extent of tumor cell necrosis and apoptosis. […] The high degree of cell apoptosis and necrosis in halofuginone treated tumors is in all likelihood due to an inhibition of angiogenesis and […] deposition, both critical factors supporting growth and survival of the tumor cells.

[1] = tested on: bovine aortic endothelial cells; assay: 3H-thymidine incorporation into vascular endothelial cells; format: cell-based; conditions: 48 hours
Procedure: Cultures of vascular endothelial cells were established from bovine aorta as previously described [D. Gospodarowicz, et al., Proc. Natl. Acad. Sci. U.S.A., Vol. 73, p. 4120 (1979)]. Bovine aortic endothelial cells were plated (4×10^4 cells/16 mm well) in DMEM (1 g glucose/liter) supplemental with 10% calf serum, 50 U/ml penicillin, and 50 μ/ml streptomycin at 37° C. in 10% CO2 humidified incubators. Four days after plating, the subconfluent cells were exposed to increasing concentrations of Halofuginone (100-500 ng/ml), in the absence of presence of 1 ng/ml bFGF. ^3H-thymidine (1 μCi/well) was then added for an additional 48 hours, and DNA synthesis was assayed by measuring the radioactivity incorporated into trichloroacetic acid insoluble material [M. Benezra, et al., Cancer Res., Vol 52, pp. 5656-5662 (1992); I. Vlodavsky, et al., Proc. Natl. Acad. Sci. U.S.A. Vol. 84, pp. 2292-2296 (1987)].

3T3 fibroblast cells = conditions: in vitro; cited from earlier work

SMILES: O=C(CC1NCCCC1O)Cn1cnc2cc(Br)c(Cl)cc2c1=O (stereo not shown) [Halofuginone]
- tunnel staining of tumor sections (cell apoptosis and necrosis) (tumor cells): majority of cells in tumor sections derived from halofuginone treated mice exhibited an intense staining
- IC50 ([1]; Bos taurus, Endothelial cell, absence of bFGF (FIG. 2A), read-out: concentration giving 50% inhibition of 3H-thymidine incorporation): 0.1 µg/mL (≈ 0.241 µM)
- concentration giving 50% inhibition of 3H-thymidine incorporation ([1]; presence of 1 ng/ml bFGF (FIG. 2B)): 100 ng/mL
- proliferation of 3T3 fibroblast cells (3T3 fibroblast cells): inhibit the proliferation
